{
  "source": "paper PMC6196658",
  "about": "“Activity of Thioallyl Compounds From Garlic Against Giardia duodenalis Trophozoites and in Experimental Giardiasis” (Frontiers in Cellular and Infection Microbiology, 2018)",
  "key": {"[1]": {"test_system": "G. duodenalis trophozoites", "assay": "In vitro susceptibility, FDA-PI staining", "type": "cell-based, Giardia duodenalis (WB strain)", "conditions": "24 h exposure"}, "[2]": {"test_system": "thiol groups exposed in G. duodenalis trophozoite proteins", "assay": "Thiol-modifying activity (inhibition of thiol-DTNB complexes)", "type": "biochemical, Giardia duodenalis", "conditions": "100 μg soluble trophozoite protein, 10 min 37°C, DTNB 412 nm", "method": "The technique reported by Lawson and Wang ([1993]) was followed. In these assays trophozoites were collected from 60 mL flasks, washed 3 times with PBS and resuspended in 500 μL PBS containing a 1:12.5 dilution of a commercial mixture of protease inhibitors (Complete^TM, Roche Diagnostics GmbH, Indianapolis, IN, USA) and lysed by sonication at 12 microns/60% amplitude (Ultrasonic apparatus Sonic UVX1130PB). Soluble proteins were recovered by centrifugation at 15,400 × g for 30 min at 4°C and protein concentration was determined by the Bradford technique. These samples were adjusted to a concentration of 1 mg/mL. Reactions were carried out in 1.5 mL microcentrifuge tubes with a mixture of 100 μg protein (100 μL) and NaH2PO4 45 mM pH 7.0 mM (800 μL) to which increasing volumes of TACs stocks or a positive control with the thiol derivatizing agent MMTS prepared at 50 mM in the same buffer, were added and total volume was adjusted to 1 mL. After incubation for 10 min at 37°C, 100 μL of 1.5 mM dithionitrobenzoic acid (DTNB, Ellman's reagent) were added to each tube and following incubation for 10 min at room temperature the absorbances (yellow solutions) were recorded at 412 nm (Smart Spec 3000^TM, Bio-Rad, Hercules, CA, USA). A calibration curve was obtained using increasing volumes (0–100 μL) of 15.5 mM cysteine instead protein extracts and the maximal blocking concentration (MBC) corresponding to a complete absence of thiol-DTNB complexes produced by TACs were calculated using the least-square method (Microsoft Excel^TM)."}, "giardipain-1": {"biological_target": "T1, giardipain-1 (Giardia intestinalis, UniProt P92132)", "T1 construct": "the 25 kDa band that contains the processed form of the cathepsin B-like protease named as giardipain-1; endogenous in cells", "T1 sequence (P92132 75-300)": "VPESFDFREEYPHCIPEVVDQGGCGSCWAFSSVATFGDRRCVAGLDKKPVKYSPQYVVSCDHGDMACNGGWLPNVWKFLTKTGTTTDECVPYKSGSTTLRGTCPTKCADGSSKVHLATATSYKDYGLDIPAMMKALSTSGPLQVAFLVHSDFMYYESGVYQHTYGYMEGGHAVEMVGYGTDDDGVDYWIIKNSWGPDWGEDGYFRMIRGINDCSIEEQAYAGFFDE", "assay": "Inhibition of cytolytic effect of giardipain-1 on IEC6 cell monolayers", "type": "cell-based, Giardia duodenalis", "conditions": "5.3 mM pre-incubated 30 min with giardipain-1 16 μg/mL; 100 min", "method": "Additional assays were carried out using the MLCs of TACs (without giardipain-1) previously obtained in trophozoite cultures to monitor their toxicity. These solutions were added to monolayers of the intestinal cell line IEC6 grown in 1 cm^2-microwells and incubated for 100 min at 37°C. After incubation, supernatants were discarded and monolayers were fixed with 2% paraformaldehyde in PBS. The effects of TACs and E64 on the cytolytic effect of giardipain-1 were evaluated by light microscopy using Nomarski optics (Axioskop 40, Zeiss)."}, "[3]": {"test_system": "G. duodenalis trophozoites", "assay": "Cell cycle stages, PI flow cytometry", "type": "cell-based, Giardia duodenalis", "conditions": "24 h", "method": "The identification and quantitative determinations of trophozoites were carried out as follows: (a) apoptosis or necrosis were determined using anti-annexin V-fluorescein isothiocyanate (FITC) antibodies or PI as respective markers, (b) oxidative stress was determined by formation of reactive oxygen species (ROS) with the fluorescent ROS-complexing agent 5-(and 6)-carboxy 2′7′-dichlorodihydrofluorescein diacetate (H2DCFDA), and (c) determination of trophozoites cell cycle stages (G1, S, G2, and G2/M) after exposure to ALC or to a control drug (albendazole, ABZ) was carried out as previously described (Martínez-Espinosa et al., [2015]). In all these assays 20,000 cells per sample were recorded."}, "[4]": {"test_system": "G. duodenalis trophozoites", "assay": "Electron microscopy of exposed trophozoites", "type": "cell-based, Giardia duodenalis", "method": "Trophozoites were exposed to TACs in two ways: under long (24 h, standard toxicity) and short (3 h, acute toxicity) incubations at 37°C using concentrations corresponding to the experimental MLC (as determined at 24 h) and twofold the MLC, respectively. For scanning electron microscopy, PBS-washed parasites were fixed with 2.5% glutaraldehyde in 0.1 M sodium cacodylate buffer, pH 7.2, dehydrated under increasing concentrations of ethanol, critical-point dried using a Samdri apparatus, gold coated in an ion sputtering device (JEOL-JFC-1100), and examined with a JEOL 35-C scanning electron microscope. In transmission electron microscopy (TEM) studies, washed cells were fixed with 2.5% glutaraldehyde and post-fixed with 1% osmium tetroxide in cacodylate buffer. Following sequential dehydration in ethanol, samples were embedded with epoxy resins."}, "Entamoeba histolytica": {"test_system": "Entamoeba histolytica", "design": "method as in Ankri et al., 1997", "conditions": "ref Ankri et al., 1997; cited from earlier work"}, "Babesia microti": {"test_system": "Babesia microti", "design": "method as in Salama et al., 2014", "conditions": "mice, 30 mg/kg orally for 5 days; ref Salama et al., 2014; cited from earlier work"}, "[5]": {"conditions": "mouse, no reference given; cited from earlier work"}, "[6]": {"assay": "Storage stability of allicin", "conditions": "1.5% (w/v) in water, 1 mL aliquots at −70°C", "procedure": "For stabilization and storage of ALC, the oily product was resuspended in water at 1.5% (w/v) and kept in 1 mL aliquots at −70°C until analyzed and used."}, "[7]": {"test_system": "G. duodenalis trophozoites", "assay": "Efficacy in experimental giardiasis", "conditions": "for cure rate (gerbils without trophozoites): read day 13", "procedure": "Eighty male Mongolian gerbils (M. unguiculatus) 6–10 weeks old, weighted 45–60 g and sentinel-checked gerbils free of intestinal parasites were kept in individual cages and distributed in 12 groups of 6 animals per treatment and experimental infections were performed as described elsewhere (Argüello-García and Ortega-Pierres, [1997]). In brief, animals were inoculated intragastrically with 1 × 10^6 G. duodenalis trophozoites in 500 μl sterile PBS per os using gavage under ether anesthesia. Control animals received 500 μl sterile PBS each. […] As additional control, one group of animals received MTZ (38.4 mg/kg at single or double dose). […] Treatment efficacy was evaluated by determining the presence or absence of trophozoites in intestinal contents of control and treated gerbils at day 13 post-infection. For this, gerbils were euthanized by an intraperitoneal injection of pentobarbital at a dose of 150 mg/kg to minimize stress and to reduce suffering, then a 10 cm-long section of intestine (from stomach ending, equivalent to nearly the entire small intestine) was excised after laparotomy, and it was longitudinally opened and rinsed in 20 mL PBS at 4°C for 20 min under shaking (720 rpm, Heidolph^TM rotatory shaker) to determine trophozoites number after parasite detachment from microvilli. Supernatant was collected and centrifuged at 750 × g for 10 min at 4°C, cell pellet was resuspended in 1 mL PBS and trophozoites were counted using a haemocytometer. Gerbils were scored as cured if no trophozoites were recovered from infected animals."}, "[8]": {"assay": "Tolerability and lethality in gerbils", "procedure": "Eighty male Mongolian gerbils (M. unguiculatus) 6–10 weeks old, weighted 45–60 g and sentinel-checked gerbils free of intestinal parasites were kept in individual cages and distributed in 12 groups of 6 animals per treatment and experimental infections were performed as described elsewhere (Argüello-García and Ortega-Pierres, [1997]). In brief, animals were inoculated intragastrically with 1 × 10^6 G. duodenalis trophozoites in 500 μl sterile PBS per os using gavage under ether anesthesia. Control animals received 500 μl sterile PBS each. […] As additional control, one group of animals received MTZ (38.4 mg/kg at single or double dose). […] Treatment efficacy was evaluated by determining the presence or absence of trophozoites in intestinal contents of control and treated gerbils at day 13 post-infection. […] Supernatant was collected and centrifuged at 750 × g for 10 min at 4°C, cell pellet was resuspended in 1 mL PBS and trophozoites were counted using a haemocytometer. Gerbils were scored as cured if no trophozoites were recovered from infected animals."}},
  "note": "Several values for one entry are separate records, joined by “and”; a condition that tells them apart may be missing. Identical values can stand only once.",
  "data": [
    {"smiles": "C=CCS[S+]([O-])CC=C", "note": "(stereo not shown) [ALC, diallyl thiosulfinate]", "values": [
      {"measurement": "MLC (mM) ±SD", "setting": "[1]", "value": "1.285 ± 0.18", "unit": "mM"},
      {"measurement": "IC50", "setting": "[1]; Giardia duodenalis", "value": "536 ± 103", "unit": "µM"},
      {"measurement": "MBC (maximal blocking concentration) ± SD", "setting": "[2]", "value": "93.8 mmol/mg protein and 93.84 ± 12.8 mmol/mg protein"},
      {"measurement": "effect on giardipain-1 cytopathic damage in IEC6 monolayers", "setting": "giardipain-1", "value": "noticeably blocked these effects"},
      {"measurement": "cells at G1 phase", "setting": "[3]; 0.6 mM", "value": "7.4% and 7.43%"},
      {"measurement": "cells at G2/M phase", "setting": "[3]; 0.6 mM", "value": "4.4% and 4.44%"},
      {"measurement": "cells at G2 phase", "setting": "[3]; 0.6 mM", "value": "61.0% and 61.09%"},
      {"measurement": "cells at S phase", "setting": "[3]; 0.6 mM", "value": 27.03, "unit": "%"},
      {"measurement": "cells at G1 phase", "setting": "[3]; 1.2 mM", "value": "2.2% and 2.22%"},
      {"measurement": "cells at G2/M phase", "setting": "[3]; 1.2 mM", "value": "5.7% and 5.72%"},
      {"measurement": "cells at G2 phase", "setting": "[3]; 1.2 mM", "value": 75.53, "unit": "%"},
      {"measurement": "cells at S phase", "setting": "[3]; 1.2 mM", "value": "5.7% and 5.72%"},
      {"measurement": "surface damage by scanning electron microscopy", "setting": "[4]; 600 μM, 24 h (standard toxicity)", "value": "membrane blebbing process with profuse holes"},
      {"measurement": "intracellular damage by transmission electron microscopy", "setting": "[4]; standard (600 μM 24 h) or acute (1.2 mM 3 h) protocol", "value": "complete loss of electron density of the intracellular elements and the integrity of plasma membrane"},
      {"measurement": "IC60", "setting": "Entamoeba histolytica", "value": 500, "unit": "µM"},
      {"measurement": "parasitemia", "setting": "Babesia microti", "value": "significantly reduced parasitemia"},
      {"measurement": "oral lethality", "setting": "[5]", "value": 300, "unit": "mg/kg"},
      {"measurement": "time of retained full activity on storage", "setting": "[6]", "value": "up to 6 months"},
      {"measurement": "cure rate (gerbils without trophozoites)", "setting": "[7]; 35 mg/kg single dose intragastric day 10 p.i.", "value": "3 out of 6"},
      {"measurement": "cure rate (gerbils without trophozoites)", "setting": "[7]; 70 mg/kg single dose intragastric day 10 p.i.", "value": "5 out of 6 and 5/6"},
      {"measurement": "cure rate (gerbils without trophozoites)", "setting": "[7]; 138 mg/kg single dose intragastric day 10 p.i.", "value": "6 out of 6 and 6/6"},
      {"measurement": "cure rate (gerbils without trophozoites)", "setting": "[7]; 276 mg/kg single dose intragastric day 10 p.i.", "value": "5 out of 6"},
      {"measurement": "intestinal parasite numbers", "setting": "[7]; increasing single doses 35-276 mg/kg, day 13 p.i.", "value": "progressive decrease in parasite numbers"},
      {"measurement": "irritation in intestinal epithelium", "setting": "[8]; 276 mg/kg single dose, treated non-infected animals, surgical examination", "value": "noticeable irritation in intestinal epithelium"},
      {"measurement": "lethal dose", "setting": "[8]; intragastric route, gerbils", "value": "> 400", "unit": "mg/kg"}
    ]}
  ]
}
